{"source": "ChEMBL document CHEMBL1159319", "about": "“Deoxyartemisinin derivatives from photooxygenation of anhydrodeoxydihydroartemisinin and their cytotoxic evaluation” (2002)", "assay_type_in_all_cases": "functional", "conditions_in_all_cases": "read-out: ED50 (the source's name)", "key": {"[1]": {"test_system": "HL-60", "experiment": "Cytotoxicity against human HL-60(TB) cells"}, "[2]": {"test_system": "CCRF-CEM", "experiment": "Cytotoxicity against human CCRF-CEM cells"}, "[3]": {"test_system": "K562", "experiment": "Cytotoxicity against human K562 cells"}, "[4]": {"test_system": "RPMI-8226", "experiment": "Cytotoxicity against human RPMI8226 cells"}, "[5]": {"test_system": "SR", "experiment": "Cytotoxicity against human SR cells"}, "[6]": {"test_system": "IGROV-1", "experiment": "Cytotoxicity against human IGROV1 cells"}, "[7]": {"test_system": "HOP-92", "experiment": "Cytotoxicity against human HOP92 cells"}, "[8]": {"test_system": "MCF7", "experiment": "Cytotoxicity against human MCF7 cells"}, "[9]": {"test_system": "BT-549", "experiment": "Cytotoxicity against human BT549 cells"}}, "data": [{"smiles": "C=C1C(=O)O[C@@H]2O[C@@]3(C)CC[C@H]4[C@H](C)CC[C@@H]1[C@@]24O3", "note": "[DEOXYARTEMISITENE]", "values": [{"measurement": "EC50", "setting": "[1]", "result": 0.69, "unit": "µg/mL"}, {"measurement": "EC50", "setting": "[2]", "result": 0.92, "unit": "µg/mL"}, {"measurement": "EC50", "setting": "[3]", "result": 0.94, "unit": "µg/mL"}, {"measurement": "EC50", "setting": "[4]", "result": 1.68, "unit": "µg/mL"}, {"measurement": "EC50", "setting": "[5]", "result": 1.89, "unit": "µg/mL"}, {"measurement": "EC50", "setting": "[6]", "result": 0.89, "unit": "µg/mL"}, {"measurement": "EC50", "setting": "[7]", "result": 0.92, "unit": "µg/mL"}, {"measurement": "EC50", "setting": "[8]", "result": 1.46, "unit": "µg/mL"}, {"measurement": "EC50", "setting": "[9]", "result": 1.97, "unit": "µg/mL"}]}]}
